In brackets after ≈: the same amount, converted by molar mass.
Assays:
Trypanosoma brucei = assay: Effective dose required for antiprotozoal activity against Trypanosoma brucei; format: functional; settings: read-out: ED50
Plasmodium falciparum = assay: Effective dose for antimalarial activity against Plasmodium falciparum; format: functional; settings: read-out: ED50
Leishmania donovani [1] = assay: Effective dose required for antiprotozoal activity against Leishmania donovani; format: functional; settings: read-out: ED50
Trypanosoma cruzi [2] = assay: Effective dose required for antiprotozoal activity against Trypanosoma cruzi; format: functional; settings: read-out: ED50
[3] = Cytotoxicity tested against KB cells of human nasopharyngeal epithelial cell line; format: functional; settings: read-out: ED50 (the source's name)
Trypanosoma cruzi [4] = assay: Effective dose required for antiprotozoal activity against Trypanosoma cruzi; T: Toxicity to both mouse macrophage host cells and intracellular parasites prevented determination of antiprotozoal activity; format: functional, organism-based
Leishmania donovani [5] = assay: Effective dose required for antiprotozoal activity against Leishmania donovani; T: Toxicity to both mouse macrophage host cells and intracellular parasites prevented determination of antiprotozoal activity; format: functional, organism-based

CCC(=O)CCCCC[C@@H]1NC(=O)[C@H]2CCCN2C(=O)[C@H]([C@@H](C)CC)NC[C@H](Cc2c[nH]c3ccccc23)NC1=O
EC50 (Trypanosoma brucei): 11.1 µg/mL (≈ 19.6 µM)
EC50 (Plasmodium falciparum): > 1 µg/mL
EC50 (Leishmania donovani [1]): > 30 µg/mL
EC50 (Trypanosoma cruzi [2]): > 30 µg/mL

CCC(=O)CCCCC[C@@H]1NC(=O)[C@H]2CCCCN2C(=O)[C@H]([C@@H](C)CC)NC(=O)[C@H](Cc2cn(OC)c3ccccc23)NC1=O [APICIDIN]
EC50 (Trypanosoma brucei): 1.9 µg/mL (≈ 3.05 µM)
EC50 (Plasmodium falciparum): 0.22 µg/mL (≈ 0.353 µM)
EC50 [3]: 200 µg/mL (≈ 321 µM)
ED50 (Trypanosoma cruzi [4]): Toxic
ED50 (Leishmania donovani [5]): Toxic

CCC(=O)CCCCC[C@@H]1NC(=O)[C@H]2CCCN2C(=O)[C@H]([C@@H](C)CC)N(C(C)=O)C[C@H](Cc2c[nH]c3ccccc23)NC1=O
EC50 (Trypanosoma brucei): 13 µg/mL (≈ 21.3 µM)
EC50 (Plasmodium falciparum): > 1 µg/mL
EC50 (Leishmania donovani [1]): > 30 µg/mL
EC50 (Trypanosoma cruzi [2]): > 30 µg/mL

Source: ChEMBL document CHEMBL1134828, “The synthesis of cyclic tetrapeptoid analogues of the antiprotozoal natural product apicidin” (2001)
